In US6867186B2, “Cell-permeable protein inhibitors of calpain” (New England Medical Center Hospital, priority 1997, dated 2005):
Where two headings read alike, the source gives them in different places. Peptide text beside a SMILES is read from it. * marks the point of attachment. Cbz = O=C(OCc1ccccc1)*; CHN2 = [N-]=[N+]=C*

Tests used:
platelets [1] = experiment: cells; type: cell-based; conditions: for IC50 / effect on platelet spreading: spreading on glass; for IC50: NI=no inhibition, read-out: IC50, inhibition of platelet spreading
Experimental: Platelet activation on surfaces can be inhibited by […] or […] fusion proteins. […] The cellular area of spread platelets was determined by computer assisted image analysis using NIH Image 1.61. […] Percent inhibition of spreading was calculated from the increase in mean cell area for untreated and treated samples vs. unspread DMSO controls.

platelets [2] = experiment: cells
Experimental: To determine whether S-TIPPEYIN could inhibit α-granule secretion in platelets, surface expression of P-selectin, which indicates α-granule secretion, was induced with the thrombin peptide SFLLR (SEQ ID NO:5) and analyzed by flow cytometry using an antibody against P-selectin. Blood from healthy volunteers was collected into sodium citrate (4% w/v) and centrifuged at 200×g for 10 minutes to prepare platelet-rich plasma (PRP), from which platelets were subsequently purified by gel filtration using a SEPHAROSE 2B column in PIPES buffer. Twenty μl of platelets (approximately 2×10^8 platelets/ml) were aliquoted into eppendorf tubes and one μl of S-TIPPEYIN, TIPPEYIN (lacking the signal peptide sequence), or S-TIPPEY-ala was added to achieve final concentrations of 6.25, 12.5, 25, 50, or 100 μM. The platelets were then incubated for 2 hours at 37° C. and subsequently exposed to either 1 μl PBS (unstimulated) or 1 μl of SFLLR (SEQ ID NO:5; stimulated) at the indicated concentration. After 30 seconds, a 7.5 μl aliquot was transferred to an eppendorf tube containing non-immune serum having antibodies that were conjugated to phycoerythrin. Following a 20 minute incubation at room temperature, the mixture was diluted with 1 ml of 2% paraformaldehyde and incubated at 4° C. for two hours. Antibody binding to platelet surface P-selectin was quantified using a FACSCAN flow cytometer (Becton Dickerson, San Jose, Calif.). Results were reported as the geometric mean of the relative fluorescence.
Platelets were pre-incubated with increasing concentrations of calpeptin, MDL, E64d, or DMSO (vehicle control) for ten minutes prior to stimulation with SFLLR.

gel filtered platelets = experiment: Thrombin-induced platelet aggregation (aggregometer); type: cell-based, human; conditions: for IC50: initial rate during first 15 seconds, NI=no inhibition, peptidyl inhibitors 10 min pre-incubation, read-out: IC50, initial rate of thrombin-induced platelet aggregation; for effect on platelet aggregation: thrombin or SFLLR induced
Experimental: In one series of experiments, platelets were purified from […] on a SEPHAROSE 2B column in PIPES buffered saline containing glucose, pre-incubated with 45 μM calpastat or S-TIPPEY-ala for 30 minutes at 37° C., and placed in a cuvette in a BIODATA aggregometer. The aggregometer measures turbidity of the solution by nephlometry (light scatter). Aggregation was induced with thrombin (0.1 to 1 unit/ml) or the thrombin receptor agonist peptide SFLLR (SEQ ID NO:5). […] In contrast, S-TIPPEY-ala had no activity. A version of S-TIPPEYIN lacking the signal sequence similarly had no activity.
In another series of experiments, gel filtered platelets were obtained and tested as follows. Blood from healthy, aspirin-free volunteers was collected by venipuncture into 4% sodium citrate (9:1 v/v, final concentration 0.4%) and centrifuged at 200×g for 20 minutes to obtain platelet rich plasma (PRP). Following incubation with apyrase (4 units/ml for 5 minutes at room temperature), platelets were purified from PRP by gel-filtration at room temperature using a Sepharose 2B column equilibrated in PIPES buffer (25 mM PIPES pH 6.8, 140 mM NaCl, 4 mM KCl, and 0.1% glucose) (Hsu-Lin, et al., J. Biol. Chem. 259:9121-9126, 1984). Final gel filtered platelet concentrations were about 1.5×10^8 cells/ml.
Gel filtered platelets (250 μl aliquots at 1.6×10^8/ml) were incubated with the indicated concentration of calpastat or mutant calpastat-ala for either 20 or 30 minutes at 37° C. in the absence of calcium and stirring. To test peptidyl calpain inhibitors, platelets were preincubated with the indicated concentration of calpeptin, MDL, E64d, DMSO (vehicle control) or NH4Cl (cathepsin control) for 10 minutes at 37° C. Following incubation, platelets were recalcified (CaCl2, 2 mM) and stimulated with 0.05-1.0 unit/ml thrombin, while being stirred (1400 rpm) at 37° C. The sensitivity of platelet preparations to thrombin decreased over the course of a given experiment. The thrombin concentration used was to elicit robust aggregation and varied between 0.05 and 1.0 U/ml. Aggregation was measured using a Bio-Data lumi-aggregometer. Percent inhibition of aggregation was measured at 4 minutes following the onset of aggregation. The initial rate of aggregation during the first 15 seconds for treated vs. untreated samples was used to calculate the IC50 for each inhibitor.

U1 cells = experiment: U1 cell viability (Trypan-blue exclusion); type: cell-based, human; conditions: for U1 cell viability: 96 hr
Experimental: (§1) U1 is a human promonocytic cell line that is chronically infected with HIV-1 and that constitutively expresses low levels of HIV-1. […] In the present experiment, 1×10^6 cells/ml were treated with various dosages of calpastat and incubated for one hour at 37° C. After incubation, various concentrations of Tpg were added to the calpastat-treated cells and aliquoted into a 24-well plate. To observe the stimulation of HIV-1 activity by Tpg, equivalent numbers of cells were treated with Tpg alone. The cells were then incubated at 37° C. for up to four days, and supernatants from the cell culture were collected each day to measure HIV-1 activity. The viability of cells treated with both Tpg and calpastat were determined each day by Trypan-blue exclusion test. The HIV-1 activity in the collected supernatants was determined by measuring the HIV-1 p24 core antigen protein by ELISA (Dupont Medical Products, Boston, Mass.) according to the manufacturer's instructions.
(§2) In another series of experiments, U1 cells, which are latently infected with HIV-1 provirus, were plated at 10^6 cells/well in 1 ml of medium and treated with varying concentrations of either calpastat (FIG. 7E) or calpeptin (benzyloxycarbonyl-leucyl-norleucinal) (FIG. 7F) for 45 minutes before addition of thapsigargin (4 nM final concentration). The viability of U1 monocytes was 90% at 48 hours of thapsigargin (4 nM) treatment, in the presence or absence of calpain inhibitors. After 48 hours of stimulation, HIV-1 p24 antigen levels were determined in 200 μl of tissue culture supernatant, using a p24 ELISA (DuPont). All assays were performed on triplicate cultures. Mean values and standard deviations are shown for each concentration of inhibitor (FIGS. 7E-7F).

HIV-1 = conditions: 24 h
Experimental: as §1
as §2, with “The viability of U1 monocytes was 90% at 48 hours of thapsigargin (4 nM) treatment, in the presence or absence of calpain inhibitors.” left out, “cultures.” for “cultures. Mean values and standard deviations are shown for each concentration of inhibitor (FIGS. 7E-7F).”

calpain = experiment: Ionophore-dependent calpain degradation of ABP and talin in platelets; type: cell-based; conditions: 5, 8, or 10 minutes A23187
Experimental: To investigate whether calpastat inhibits calpain activity in platelets, the ionophore-dependent proteolysis of actin binding protein (ABP; about 280 kDa) and talin (about 240 kDa), both of which are substrates of both μ- and m-calpains, was examined as follows.
Platelets were pre-incubated with ZLLYCHN2, DMSO (solvent for ZLLY-CHN2), calpastat, or HEPES buffer (buffer for calpastat), and then treated with or without ionophore A23187 for 5, 8, or 10 minutes. The platelets were then gel-purified as described above. Whole cell lysates were prepared and fractionated by SDS polyacrylamide gel electrophoresis.

[3] = target: T1, purified µ-calpain (porcine erythrocyte) (porcine, UniProt P35750 1-714; P04574 1-266, limits assumed); experiment: cell-based or functional assay
T1 sequence (looked up) 1: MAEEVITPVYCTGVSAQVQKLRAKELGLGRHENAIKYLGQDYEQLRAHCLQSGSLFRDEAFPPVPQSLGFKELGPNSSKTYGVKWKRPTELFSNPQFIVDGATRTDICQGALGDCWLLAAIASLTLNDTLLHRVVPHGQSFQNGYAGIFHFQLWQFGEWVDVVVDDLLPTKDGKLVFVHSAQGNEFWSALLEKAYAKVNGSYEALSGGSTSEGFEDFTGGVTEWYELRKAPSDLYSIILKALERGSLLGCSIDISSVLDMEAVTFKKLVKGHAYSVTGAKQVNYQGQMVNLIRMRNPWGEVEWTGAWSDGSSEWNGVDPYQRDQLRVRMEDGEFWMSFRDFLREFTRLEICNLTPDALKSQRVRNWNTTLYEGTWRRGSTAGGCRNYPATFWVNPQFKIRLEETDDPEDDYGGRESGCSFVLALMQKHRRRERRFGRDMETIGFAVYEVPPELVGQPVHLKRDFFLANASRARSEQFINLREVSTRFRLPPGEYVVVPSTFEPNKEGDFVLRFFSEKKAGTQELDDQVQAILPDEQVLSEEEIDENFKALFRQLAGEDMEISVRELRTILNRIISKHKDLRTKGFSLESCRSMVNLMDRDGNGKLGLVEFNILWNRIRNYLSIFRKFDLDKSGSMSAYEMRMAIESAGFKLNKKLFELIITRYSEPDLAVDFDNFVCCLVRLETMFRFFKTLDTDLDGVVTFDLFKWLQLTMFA
T1 sequence (looked up) 2: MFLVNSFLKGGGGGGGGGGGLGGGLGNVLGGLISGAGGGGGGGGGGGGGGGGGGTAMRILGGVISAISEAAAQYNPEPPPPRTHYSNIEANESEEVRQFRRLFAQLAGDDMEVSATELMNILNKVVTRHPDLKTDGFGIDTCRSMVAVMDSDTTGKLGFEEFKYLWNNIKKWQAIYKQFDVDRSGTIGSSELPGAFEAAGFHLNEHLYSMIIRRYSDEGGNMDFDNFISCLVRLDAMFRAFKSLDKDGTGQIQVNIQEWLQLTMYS

CCCC[C@@H](C=O)NC(=O)[C@H](CC(C)C)NC(=O)OCc1ccccc1 [Calpeptin, benzyloxycarbonyl-leucyl-norleucinal]
IC50 (platelets [1]; Platelet): 200 µM | platelets round and unspread (platelets [1]; pre-treated at 200 μM): 30% | IC50 (platelets [2]; Homo sapiens, Platelet, read-out: IC50 / half-maximal inhibition of P-selectin surface expression): 200 to 300 µM | IC50 (gel filtered platelets; Homo sapiens, Platelet): 150 µM

C/C=C(/C)C(=O)O[C@H]1C(C)=C2[C@H]([C@@H]1OC(=O)CCCCCCC)[C@@](C)(OC(C)=O)C[C@H](OC(=O)CCC)[C@@]1(O)[C@H]2OC(=O)[C@@]1(C)O [thapsigargin]
U1 cell viability (U1 cells; 4.0 nM Tpg): about 50% | viability of U1 monocytes (U1 cells; 4 nM thapsigargin, 48 hours, presence or absence of calpain inhibitors): 90% | U1 cell viability (U1 cells; 50 nM Tpg): ~5% | induction of virus (HIV-1) (HIV-1; 1 nM Tpg): 1.37 fold | induction of virus (HIV-1) (HIV-1; 5 nM Tpg): 20 fold

CCOC(=O)[C@H]1O[C@@H]1C(=O)N[C@@H](CC(C)C)C(=O)NCCC(C)C [E64d]
platelets round and unspread (platelets [1]; pretreated at 250 μM): About 20% | IC50 (platelets [1]): > 250 µM | IC50 (gel filtered platelets): 340 µM

CC(C)[C@H](NC(=O)OCc1ccccc1)C(=O)N[C@H](C=O)Cc1ccccc1 [MDL] (Cbz-Val-Phe-aldehyde)
platelets round and unspread (platelets [1]; pre-treated at 200 μM): 30% | IC50 (platelets [1]): 200 µM | IC50 (gel filtered platelets): 240 µM

EKLGERDDTIPPEYRELLEKKTGV [Calpastatin 24 mer]
effect on SFLLR-induced P-selectin surface expression (platelets [2]; pre-incubation, SFLLR stimulation): little effect | effect on platelet aggregation (gel filtered platelets): no measurable effect | effect on platelet aggregation (gel filtered platelets; listed as S-TIPPEYIN lacking the signal sequence): no activity

Cl.N [NH4Cl]
effect on platelet spreading (platelets [1]): no effect | effect on platelet aggregation (gel filtered platelets): does not affect platelet aggregation

CC(C)C[C@H](NC(=O)OCc1ccccc1)C(=O)N[C@@H](CC(C)C)C(=O)N[C@@H](Cc1ccc(O)cc1)C(=O)C=[N+]=[N-] [ZLLYCHN2, reference compound] (Cbz-Leu-Leu-Tyr-CHN2)
effect on platelet spreading (platelets [1]): no inhibitory activity | A23187-dependent calpain degradation of ABP and talin in platelets (calpain): inhibited

B1: calpastat (peptide)
peptide: H-AAVALLPAVLLALLAPEKLGERDDTIPPEYRELLEKKTGV-OH
inhibition of calpain cleavage of [14C]-methylcasein in a cell-free system (2.7 µM µ-calpain), IC50 [3]: 0.5 µM | inhibition of µ-calpain cleavage of suc-LLVY-AMC (fluorometric calpain assay, 70 nM enzyme), IC50 [3]: 0.05 µM
